14 compounds from US11999727B2 (Tango Therapeutics, Inc., priority 2020, dated 2024) can be followed below.

Structures are written as SMILES. Read-outs that look alike come from different tables or passages of the source. Some results are limits rather than exact numbers.

For experiment [1], the target named is T1, PRMT5 (Homo sapiens, UniProt O14744).
T1 construct: purchased Viva (custom protein)
As to the kind of experiment: PRMT5 biochemical IC50 assay with SAM as cofactor. Conditions: PRMT5, SAM as cofactor; read-out: SAM IC50.

For experiment [2], the target named is T1, PRMT5. The experiment in a line: PRMT5 biochemical IC50 assay with no cofactor. The settings on record: PRMT5, no cofactor. The text has this: Table 1 indicates IC50 values (μM) against PRMT5 for exemplary compounds in the presence of SAM as cofactor, with no cofactor, and with MTA as cofactor, respectively (columns 4-6). […] Ki values can be calculated from the IC50 values as described in the Examples section. As detailed in the Examples section, for the assay performed in the presence of SAM, IC50=Ki×1.5 (Ki=IC50/1.5).

In experiment [3] the target is T1, PRMT5. As to the kind of experiment: PRMT5 biochemical IC50 assay with MTA as cofactor. Conditions: PRMT5, MTA as cofactor; read-out: MTA IC50.
For experiment [4], the system named is HAP1 MTAP-intact cell line. The experiment in a line: SDMA in-cell western assay, HAP1 MTAP-intact. Format: cell-based. Conditions: HAP1 MTAP-intact, read-out: MTAP HAP1 intact IC50. Summed up:
(§1)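 IC50 values come from SDMA signal quantified by in-cell western in two HAP1 lines, one with native MTAP levels and one lacking MTAP.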

For experiment [5], the system named is HAP1 MTAP-deleted cell line. As to the kind of experiment: SDMA in-cell western assay, HAP1 MTAP-deleted. Format: cell-based. The settings on record: for IC50: HAP1 MTAP-deleted. The gist of the method:
as §1

Experiment [6] deals with HAP1 MTAP-deleted cell line. As to the kind of experiment: Viability assay, MTAP-deleted cell line. Conditions: read-out: HAP1 MTAP deleted viability. Format: cell-based. An excerpt:
Table 1 additionally indicates IC50 values in a viability assay for the MTAP-deleted cell line (column 10), indicating the effect of treatment with compound on cell survival.

The mark [7] stands for this setting: Homo sapiens, HAP1, SDMA in-cell western.
[8] abbreviates: Homo sapiens, HAP1, SDMA in-cell western, read-out: HAP 1 MTAP deleted IC50.
Where [9] appears, read: IC50 ratio HAP1 MTAP-intact / HAP1 MTAP-deleted, SDMA in-cell western.
The mark [10] stands for this setting: Homo sapiens, HAP1, viability IC50, MTAP-deleted cell line.
Setting [11] is: read-out: No Cofactor/ rel IC50.
[12] abbreviates: SDMA in-cell western, read-out: HAP 1 MTAP deleted IC50.
The mark [13] stands for this setting: Homo sapiens, HAP1, SDMA in-cell western, read-out: HAP1 MTAP deleted IC50.
Where [14] appears, read: Homo sapiens, HAP1, viability assay, MTAP-deleted cell line.

T1 sequence (O14744 whole entry): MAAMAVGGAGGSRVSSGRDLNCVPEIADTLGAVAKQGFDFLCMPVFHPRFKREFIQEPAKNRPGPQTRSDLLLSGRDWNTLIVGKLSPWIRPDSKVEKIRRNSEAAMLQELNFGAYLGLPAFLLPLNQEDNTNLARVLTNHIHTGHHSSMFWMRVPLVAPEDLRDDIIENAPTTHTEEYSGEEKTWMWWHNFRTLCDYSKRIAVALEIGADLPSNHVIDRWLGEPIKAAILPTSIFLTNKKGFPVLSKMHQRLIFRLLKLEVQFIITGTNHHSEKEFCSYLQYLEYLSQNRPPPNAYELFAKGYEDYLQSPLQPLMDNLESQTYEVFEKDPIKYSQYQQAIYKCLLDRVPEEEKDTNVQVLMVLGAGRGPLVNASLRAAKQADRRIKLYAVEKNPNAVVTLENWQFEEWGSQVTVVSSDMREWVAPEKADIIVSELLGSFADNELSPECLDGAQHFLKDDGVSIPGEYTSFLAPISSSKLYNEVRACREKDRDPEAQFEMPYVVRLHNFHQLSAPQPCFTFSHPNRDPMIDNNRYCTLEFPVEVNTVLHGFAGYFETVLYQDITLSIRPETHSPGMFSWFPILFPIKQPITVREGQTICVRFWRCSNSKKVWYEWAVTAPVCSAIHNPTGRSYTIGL
T1 sequence (Q9BQA1 whole entry partner): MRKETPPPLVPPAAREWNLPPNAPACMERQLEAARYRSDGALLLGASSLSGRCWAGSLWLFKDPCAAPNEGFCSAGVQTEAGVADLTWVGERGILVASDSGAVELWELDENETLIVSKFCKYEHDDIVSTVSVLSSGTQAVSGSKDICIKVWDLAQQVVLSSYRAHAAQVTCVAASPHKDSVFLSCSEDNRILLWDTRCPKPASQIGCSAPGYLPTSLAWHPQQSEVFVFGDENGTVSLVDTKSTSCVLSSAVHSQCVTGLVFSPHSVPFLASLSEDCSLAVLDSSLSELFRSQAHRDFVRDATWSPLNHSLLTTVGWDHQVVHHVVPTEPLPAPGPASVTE

Consider `Cc1cc(NC(=O)C(=O)N2C[C@H](C)CC[C@H]2C2CCN(C)CC2)cnc1N` (racemic) [Compound 614, N-(6-amino-5-methyl-3-pyridyl)-2-[(2R,5S)-5-methyl-2-(1-methyl-4-piperidyl)-1-piperidyl]-2-oxo-acetamide], for which the IC50 is more than 500 nM on PRMT5 [1]; more than 500 nM at PRMT5 [2] (read-out: No Cofactor/rel IC50); more than 500 nM at PRMT5 [3]; more than 1000 nM in experiment [4] (setting [7]); more than 1000 nM in experiment [5] (setting [8]); more than 10000 nM in experiment [6] (setting [10]). Besides, the MTAP intact/deleted ratio entry in experiment [5] (setting [9]) was “C (an IC50 ratio of less than 3 fold)”.
Take `CCc1cc(NC(=O)C(=O)N2C[C@@H](C)CC[C@@H]2c2cccc([C@H]3CCCN(C)C3)c2)cnc1N` (single isomer, unassigned) [Compound 1353]: the IC50 is 50 to 500 nM at PRMT5 [1]; less than 50 nM at PRMT5 [2] (setting [11]); less than 50 nM at PRMT5 [3]; 100 to 1000 nM in experiment [4] (SDMA in-cell western); less than 100 nM in experiment [5] (setting [12]); less than 1000 nM in experiment [6] (viability, HAP1 MTAP-deleted cell line). The “MTAP intact/deleted ratio” value in experiment [5] (setting [9]) is “A (an IC50 ratio greater than or equal to 10 fold)”.
As for `C[C@@H]1CC[C@@H](c2ccc(Cl)c(C(F)(F)F)c2)N(C(=O)C(=O)Nc2cncc(C(N)=O)c2)C1` (racemic) [Compound 337, rac-5-{2-[(2R,5S)-2-[4-Chloro-3-(trifluoromethyl)phenyl]-5-methylpiperidin-1-yl]-2-oxoacetamido}pyridine-3-carboxamide], the IC50 at PRMT5 [1] is more than 500 nM; at PRMT5 [2] (read-out: No Cofactor/rel IC50) it was 50 to 500 nM; at PRMT5 [3] it was 50 to 500 nM; in experiment [4] (setting [7]), more than 1000 nM; in experiment [5] (setting [13]), 100 to 1000 nM; in experiment [6] (setting [14]), 1000 to 10000 nM. Further, the MTAP intact/deleted ratio result in experiment [5] (setting [9]) is on record as “A (an IC50 ratio greater than or equal to 10 fold)”.
Consider `Cc1ccc([C@@H]2CC[C@@H](C)CN2C(=O)C(=O)Nc2cnc(N)c(C)c2)cn1` (single isomer, unassigned) [Compound 687], for which the IC50 on PRMT5 [1] was 50 to 500 nM; on PRMT5 [2] (read-out: No Cofactor/rel IC50), less than 50 nM; on PRMT5 [3] it was less than 50 nM; in experiment [4] (setting [7]), 100 to 1000 nM; in experiment [5] (setting [8]), less than 100 nM; in experiment [6] (setting [10]), less than 1000 nM. Besides, the MTAP intact/deleted ratio result in experiment [5] (setting [9]) is “A (an IC50 ratio greater than or equal to 10 fold)”.
On to `CC(=O)N1CCC(c2cccc(C3CCCCN3C(=O)C(=O)Nc3cncc(C)c3)c2)CC1` (single isomer, unassigned) [Compound 78], for which the IC50 is more than 500 nM on PRMT5 [1]; more than 500 nM at PRMT5 [2] (setting [11]); 50 to 500 nM at PRMT5 [3]; more than 1000 nM in experiment [4] (SDMA in-cell western); more than 1000 nM in experiment [5] (setting [12]); more than 10000 nM in experiment [6] (viability assay, MTAP-deleted cell line). In addition, the “MTAP intact/deleted ratio” value in experiment [5] (setting [9]) is “C (an IC50 ratio of less than 3 fold)”.
With `C[C@H]1CC[C@H](c2ccc(O)c(F)c2)N(C(=O)C(=O)Nc2cncc(C(N)=O)c2)C1` (single isomer, unassigned) [Compound 354], the IC50 on PRMT5 [1] is 50 to 500 nM; at PRMT5 [2] (read-out: No Cofactor/rel IC50), less than 50 nM; at PRMT5 [3] it was less than 50 nM; in experiment [4] (setting [7]), 100 to 1000 nM; in experiment [5] (setting [13]), less than 100 nM; in experiment [6] (setting [14]), less than 1000 nM. The MTAP intact/deleted ratio entry in experiment [5] (setting [9]) is listed as “A (an IC50 ratio greater than or equal to 10 fold)”.
`Cc1cc(NC(=O)C(=O)N2C[C@@H](C)CC[C@@H]2c2ccc(C(F)(F)F)nc2)cnc1N` (single isomer, unassigned) [Compound 1012]: the IC50 on PRMT5 [1] was 50 to 500 nM; at PRMT5 [2] (read-out: No Cofactor/rel IC50), 50 to 500 nM; at PRMT5 [3] it was less than 50 nM; in experiment [4] (setting [7]), 100 to 1000 nM; in experiment [5] (setting [8]), 100 to 1000 nM; in experiment [6] (setting [14]) it was 1000 to 10000 nM. Also, the MTAP intact/deleted ratio entry in experiment [5] (setting [9]) is reported as “C (an IC50 ratio of less than 3 fold)”.
`Cc1cc(NC(=O)C(=O)N2CCCC[C@@H]2C(C)C)cnc1N` (single isomer, unassigned) [Compound 204]: the IC50 at PRMT5 [1] was more than 500 nM; on PRMT5 [2] (read-out: No Cofactor/rel IC50), more than 500 nM; on PRMT5 [3], 50 to 500 nM; in experiment [4] (setting [7]) it was more than 1000 nM; in experiment [5] (setting [13]), more than 1000 nM; in experiment [6] (setting [14]), more than 10000 nM. In addition, the MTAP intact/deleted ratio entry in experiment [5] (setting [9]) is reported as “C (an IC50 ratio of less than 3 fold)”.
As for `C[C@H]1CC[C@H](c2ccc3cncn3c2)N(C(=O)C(=O)Nc2cnc(N)c(C3CC3)c2)C1` (single isomer, unassigned) [Compound 1205, N-(6-amino-5-cyclopropylpyridin-3-yl)-2-(2-(imidazo[1,5-a]pyridin-6-yl)-5-methylpiperidin-1-yl)-2-oxoacetamide], the IC50 at PRMT5 [1] is less than 50 nM; at PRMT5 [2] (read-out: No Cofactor/rel IC50), less than 50 nM; on PRMT5 [3], less than 50 nM; in experiment [4] (setting [7]), 100 to 1000 nM; in experiment [5] (setting [13]) it was less than 100 nM; in experiment [6] (setting [14]), less than 1000 nM. Further, the MTAP intact/deleted ratio entry in experiment [5] (IC50 ratio HAP1 MTAP-intact vs HAP1 MTAP-deleted, SDMA in-cell western) was “A (an IC50 ratio greater than or equal to 10 fold)”.
For the compound `CCc1cc(NC(=O)C(=O)N2C[C@@H](C)CC[C@@H]2c2ccc3sc([C@H]4COCCN4C)nc3c2)cnc1N` [Compound 1245, N-(6-amino-5-ethylpyridin-3-yl)-2-((2R,5S)-5-methyl-2-(2-(4-methylmorpholin-3-yl)benzo[d]thiazol-5-yl)piperidin-1-yl)-2-oxoacetamide], the IC50 is 50 to 500 nM at PRMT5 [1]; less than 50 nM on PRMT5 [2] (setting [11]); less than 50 nM at PRMT5 [3]; 100 to 1000 nM in experiment [4] (setting [7]); less than 100 nM in experiment [5] (setting [8]); less than 1000 nM in experiment [6] (Homo sapiens, HAP1, viability, HAP1 MTAP-deleted cell line). Moreover, the “MTAP intact/deleted ratio” value in experiment [5] (setting [9]) is “A (an IC50 ratio greater than or equal to 10 fold)”.
For the compound `CCc1cc(NC(=O)C(=O)N2C[C@H](C)CC[C@H]2c2ccc(N3CCOC4(CN(C)C4)C3)cc2)cnc1N` (single isomer, unassigned) [Compound 1150], the IC50 on PRMT5 [1] is more than 500 nM; at PRMT5 [2] (read-out: No Cofactor/rel IC50) it was more than 500 nM; at PRMT5 [3] it was more than 500 nM; in experiment [4] (setting [7]) it was more than 1000 nM; in experiment [5] (setting [13]), more than 1000 nM; in experiment [6] (setting [14]), more than 10000 nM.
Consider `Cc1cnc(N)c(NC(=O)C(=O)N2CCCCC2c2ccccc2)c1` (stereo not shown) [Compound 160, N-(2-amino-5-methylpyridin-3-yl)-2-oxo-2-(2-phenylpiperidin-1-yl)acetamide], for which the IC50 on PRMT5 [1] was more than 500 nM; at PRMT5 [2] (setting [11]), more than 500 nM; on PRMT5 [3], more than 500 nM; in experiment [4] (setting [7]), more than 1000 nM; in experiment [5] (setting [8]) it was more than 1000 nM; in experiment [6] (setting [14]), more than 10000 nM. The “MTAP intact/deleted ratio” value in experiment [5] (setting [9]) is “C (an IC50 ratio of less than 3 fold)”.
For the compound `Cc1cc(NC(=O)C(=O)N2C[C@H](C)CC[C@H]2c2cccc(C(F)(F)F)c2)cnc1N` (single isomer, unassigned) [Compound 496], the IC50 was 50 to 500 nM on PRMT5 [1]; less than 50 nM on PRMT5 [2] (read-out: No Cofactor/rel IC50); less than 50 nM at PRMT5 [3]; more than 1000 nM in experiment [4] (setting [7]); less than 100 nM in experiment [5] (setting [13]); 1000 to 10000 nM in experiment [6] (setting [14]). In addition, the MTAP intact/deleted ratio result in experiment [5] (setting [9]) was “A (an IC50 ratio greater than or equal to 10 fold)”.
On to `COc1ncc(NC(=O)C(=O)N2C[C@H](C)CC[C@H]2c2ccc3[nH]cnc3c2)cc1C(N)=O` (single isomer, unassigned) [Compound 794], for which the IC50 on PRMT5 [1] was 50 to 500 nM; on PRMT5 [2] (read-out: No Cofactor/rel IC50) it was less than 50 nM; at PRMT5 [3], less than 50 nM; in experiment [4] (setting [7]) it was more than 1000 nM; in experiment [5] (setting [13]), less than 100 nM; in experiment [6] (Homo sapiens, HAP1, viability assay, HAP1 MTAP-deleted), less than 1000 nM. For the same compound, the MTAP intact/deleted ratio entry in experiment [5] (setting [9]) is “A (an IC50 ratio greater than or equal to 10 fold)”.
